Patent US9377460B2 (priority 2009, dated 2016)

Columns and labels:
[1] = system: IFN-gamma-secreting T cells; assay type: cell-based, human; settings: for Proportion of responders to the Rv3615c peptide pool who respond to the individual peptide, LTBI % / Proportion of responders to the Rv3615c peptide pool who respond to the individual peptide, LTBI n: LTBI subjects; for Proportion of responders to the Rv3615c peptide pool who respond to the individual peptide, LTBI n / Proportion of responders to the Rv3615c peptide pool who respond to the individual peptide, Cases n: subjects responding/pool responders tested; for Proportion of responders to the Rv3615c peptide pool who respond to the individual peptide, Cases % / Proportion of responders to the Rv3615c peptide pool who respond to the individual peptide, Cases n: active TB cases
CD4-positive T cells = assay: FACS analysis following cytokine capture assay (IFN-gamma / IL-2); assay type: cell-based, human; settings: subject T416 (LTBI), 6 hour stimulation

Sequence | Proportion of responders to the Rv3615c peptide pool who respond to the individual peptide, LTBI % [1] | Proportion of responders to the Rv3615c peptide pool who respond to the individual peptide, LTBI n [1] | Proportion of responders to the Rv3615c peptide pool who respond to the individual peptide, Cases % [1] | Proportion of responders to the Rv3615c peptide pool who respond to the individual peptide, Cases n [1] | CD4 T cells secreting IFN-gamma only, relative size of subset (CD4-positive T cells) | CD4 T cells secreting IL-2 only, relative size of subset (CD4-positive T cells) | CD4 T cells secreting both IFN-gamma and IL-2, relative size of subset (CD4-positive T cells)
AHNALGSSLHTAGVD (listed as Mycobacterium tuberculosis) [p13, 15mer peptide of Rv3615c] | 0% | 0/4 | 21% | 3/14 |  |  | 
AITHGPYCSQFNDTL (listed as Mycobacterium tuberculosis) [p9, 15mer peptide of Rv3615c] | 40% | 2/5 | 0% | 0/15 |  |  | 
ASHHDNAAVDASSGV (listed as Mycobacterium tuberculosis) [p4, 15mer peptide of Rv3615c] | 20% | 1/5 | 13% | 2/15 |  |  | 
ASSGVEAAAGLGESV (listed as Mycobacterium tuberculosis) [p6, 15mer peptide of Rv3615c] | 0% | 0/5 | 7% | 1/15 |  |  | 
DEAWRKAIDGLFT (listed as Mycobacterium tuberculosis) [p19, carboxy-terminal peptide of Rv3615c] | 25% | 1/4 | 15% | 2/13 |  |  | 
EAAAGLGESVAITHG (listed as Mycobacterium tuberculosis) [p7, 15mer peptide of Rv3615c] | 0% | 0/5 | 7% | 1/15 |  |  | 
FNDTLNVYLTAHNAL (listed as Mycobacterium tuberculosis) [p11, 15mer peptide of Rv3615c] | 0% | 0/5 | 27% | 4/15 |  |  | 
GSSLHTAGVDLAKSL (listed as Mycobacterium tuberculosis) [p14, 15mer peptide of Rv3615c] | 50% | 2/4 | 79% | 11/14 | smallest population | second largest population | dominant population
IYSEADEAWRKAIDG (listed as Mycobacterium tuberculosis) [p18, 15mer peptide of Rv3615c] | 25% | 1/4 | 8% | 1/13 |  |  | 
LAKSLRIAAKIYSEA (listed as Mycobacterium tuberculosis) [p16, 15mer peptide of Rv3615c] | 100% | 4/4 | 69% | 9/13 | smallest population | second largest population | dominant population
LGESVAITHGPYCSQ (listed as Mycobacterium tuberculosis) [p8, 15mer peptide of Rv3615c] | 0% | 0/5 | 7% | 1/15 |  |  | 
MTENLTVQPERLGVL (listed as Mycobacterium tuberculosis) [p1, 15mer peptide of Rv3615c] | 0% | 0/5 | 7% | 1/15 |  |  | 
NAAVDASSGVEAAAG (listed as Mycobacterium tuberculosis) [p5, 15mer peptide of Rv3615c] | 20% | 1/5 | 13% | 2/15 |  |  | 
NVYLTAHNALGSSLH (listed as Mycobacterium tuberculosis) [p12, 15mer peptide of Rv3615c] | 40% | 2/5 | 43% | 6/14 |  |  | 
PYCSQFNDTLNVYLT (listed as Mycobacterium tuberculosis) [p10, 15mer peptide of Rv3615c] | 40% | 2/5 | 40% | 6/15 |  |  | 
RIAAKIYSEADEAWR (listed as Mycobacterium tuberculosis) [p17, 15mer peptide of Rv3615c] | 50% | 2/2 | 38% | 5/13 |  |  | 
RLGVLASHHDNAAVD (listed as Mycobacterium tuberculosis) [p3, 15mer peptide of Rv3615c] | 40% | 2/5 | 20% | 3/15 |  |  | 
TAGVDLAKSLRIAAK (listed as Mycobacterium tuberculosis) [p15, 15mer peptide of Rv3615c] | 50% | 2/4 | 71% | 10/14 |  |  | 
TVQPERLGVLASHHD (listed as Mycobacterium tuberculosis) [p2, 15mer peptide of Rv3615c] | 0% | 0/5 | 33% | 5/15 |  |  | 
